Results reported in patent US11938125B2, “Use of Hsp70 as a regulator of enzymatic activity” (Zevra Denmark A/S, priority 2008, dated 2024).

Legend:
[1] = system: lysosomes of Hsp70-MEFs; experiment: Live single-cell imaging of loss of lysosomal integrity (photo-oxidation) in Hsp70-MEFs; assay type: cell-based, murine; details: subtoxic desipramine 12.5 and 25 μM, 3 h
Protocol: Assays for lysosomal integrity. Sub-confluent cells incubated with 2 μg/ml acridine orange for 15 min at 37° C. were washed, irradiated and analyzed in Hanks balanced salt solution complemented with 3% fetal calf serum. Cells for single cell imaging were selected from 8 pre-defined areas of each well in transmitted light-mode after which the same cells were immediately visualized and exposed to blue light from USH102 100 W mercury arc burner (Ushio electric) installed in a U-ULS100HG housing (Olympus) for 20 sec. Fluorescence microscopy was performed on Olympus IX-70 inverted microscope with a […] 1×20 objective with NA=0.40. Loss of lysosomal pH gradient was quantified by counting the loss of intense red staining. A more elaborate method for assaying lysosomal integrity was developed to handle the larger lysosomal compartment of the various fibroblasts used in this study. Cells for single cell imaging were selected from 8 pre-defined areas of each well in transmitted light-mode after which the same cells were immediately and continuously exposed to 489 nm light from a 100 mW diode laser while laser scanning micrographs where captured every 330 ms on a Zeiss LSM LIVE DUO confocal system in two channels defined by bandpass filters for 495-555 nm (green) and LP650 nm (Red) light. The resulting timelapse movies where subsequently analysed by the integrated Zeiss LSM DUO software.

[2] = system: lysosomes of WT and Hsp70 iMEFs; experiment: Cytosolic cathepsin activity (zFRase) in MEFs; assay type: cell-based, murine; details: 3 h
Protocol: Cells were treated with cisplatin as indicated, cytosolic fractions were obtained by digitonin treatment and cytosolic cysteine cathepsin (zFRase) and caspase-3-like (DEVDase) activities were determined. […] The total and cytoplasmic (digitonin-extracted) cathepsin activities were measured in digitonin-treated samples using zFR-AFC (Enzyme System Products) probe as described in the art.

[3] = system: WT and Hsp70 iMEFs; experiment: Viability of MEFs (MTT reduction); assay type: cell-based; details: 3 h
Protocol: The viability of cells was analyzed by the 3-(4,5-dimethylthiazole-2-yl)-2,5-diphenyltetrazolium bromide (MTT) reduction assay as described previously^67.
Assays for cell viability. Cell density was assessed by the 3-(4,5-dimethylthiazole-2-y)-2,5-[…] (MTT, SIGMA-Aldrich) reduction assay essentially as described in the art. Apoptosis-like cell death was assessed by staining the cells with 0.05 μg/ml Hoechst 33342 (Molecular Probes) and counting cells with condensed nuclei in an inverted Olympus IX-70 fluorescent Microscope (Filter U-MWU 330-385 nm). For each experiment a minimum of eight randomly chosen areas were counted.

[4] = system: BMP; experiment: BIAcore surface plasmon resonance with immobilized BMP-containing LUVs; assay type: binding; details: pH 4.5
Protocol: (§1) For preparation of LUVs a lipid mixture consisting of 10 mol % sphingomyelin, 50 mol % phosphatidylcholine, 20 mol % cholesterol and 20 mol % BMP dissolved in organic solvents, was dried under a stream of argon and rehydrated in Tris/HCl buffer (pH 7.4) (Kolzer et al., 2004). The mixture was freeze-thawed nine times in liquid nitrogen and then in an incubator at 37° C. After ultrasound bath for 15 min the mixture was passed 21 times through a polycarbonate membrane with a pore diameter of 100 nm. Surface plasmon resonance measurements were performed using a BIAcore 2000 system at 25° C. LUVs (total lipid concentration 0.1 mM) were immobilized on the surface of a L1 sensor chip (BIAcore) in PBS (loading buffer). The running buffer used was sodium acetate buffer (50 mM, pH 4.5). As a control, acid sphingomyelinase (0.2 μM, 60 μl in running buffer) was injected directly on the liposome surface. Response units between 4100 RU-5250RU were obtained. The protein of interest was injected in running buffer at a flow rate of 20 μl/min at the concentrations indicated. After injection a dissociation phase of 10 min was appended.
as §1, with “Surface Plasmon Resonance (BIAcore). For” for “For”, “7.4).” for “7.4) (Kolzer et al., 2004).”, “The protein of interest was injected in running buffer at a flow rate of 20 μl/min at the concentrations indicated. After injection a dissociation phase of 10 min was appended.” left out

[5] = system: acid sphingomyelinase (ASM), endogenous mutated and loaded rASM; experiment: ASM activity of NPDA fibroblasts; assay type: cell-based, human; details: 300 nM rHsp70 48 h, or 150 nM rASM alone or with 300 nM rHsp70 24 h
Excerpt: WT- and Hsp70-MEFs were generated, immortalized and maintained as described in the art. Human NPDA fibroblasts (83/24) originate from a skin biopsy of a patient with hepatosplenomegaly. Recombinant proteins were generated using the pET-16b vector system and Ni^2+-affinity-purification (Novagen), and labeled with Alexa Fluor 488 according to manufacturers protocol (Molecular Probes). To analyze the lysosomal integrity, we developed a real time imaging method of cells stained with acridine orange, a metachromatic weak base that accumulates in the acidic compartment of the cells staining them red and sensitizing them to photo-oxidation. The photo-oxidation-induced loss of the lysosomal pH-gradient and leakage of acridine orange to the cytosol from individual lysosomes was quantified visually as “loss of red dots” in U2-O—S cells and as a decrease in red and an increase in green fluorescence by Zeiss LSM DUO Software in fibroblasts. The total and cytoplasmic (digitonin-extracted) cathepsin activities were measured in digitonin-treated samples using zFR-AFC (Enzyme System Products) probe as described in the art. The tryptophan fluorescence spectra and liposome 900 light scattering were analyzed in a HEPES buffer (20 mM HEPES, 0.1 mM EDTA, pH as indicated) essentially as described in the art. […]

[6] = system: NPDA fibroblasts; experiment: Lysosomal area of confocal cross sections, NPDA fibroblasts; assay type: cell-based, human; details: NPDA fibroblasts, 24 h, 300 nM rHsp70 or W90F, 150 nM rASM or combination
Excerpt: Immunodetection and microscopy. Primary antibodies used included mouse monoclonal antibodies against Hsp70 (2H9; kindly provided by Boris Margulis, Russian Academy of Sciences, St. Petersburg, Russia), glyceraldehyde-3-phosphate dehydrogenase (GAPDH; Biogenesis), BMP (6C4), lysosomal integral membrane protein-1 (H5C6; developed by J. Thomas August and James E. K. Hildreth and obtained from the Developmental Studies Hybridoma Bank developed under the auspices of the NICHD and maintained by The University of Iowa, Department of Biological Sciences, Iowa City, USA). Proteins separated by 10% SDS-PAGE and transferred to a nitrocellulose membrane were detected by using indicated primary antibodies, appropriate peroxidase-conjugated secondary antibodies from Dako, ECL Western blotting reagents (Amersham), and Luminescent Image Reader (LAS-1000Plus, Fujifilm). For immunocytochemistry Alexa […] or Alexa Fluor®-488-conjugated secondary antibodies were used. Lysotracker Red® was used for live visualization of the lysosomal compartment. Fluorescence images were taken using a Zeiss Axiovert 100M laser scanning microscope. Lysotracker quantification and timelapse movies for lysosomal integrity were done on a Zeiss LSM LIVE DUO system.

[7] = system: lysosomes of NPDA patient fibroblasts; experiment: Lysosomal stability of NPDA fibroblasts (photo-oxidation, live single-cell imaging); assay type: cell-based, human; details: NPDA fibroblasts, 24 h, 300 nM rHsp70, 150 nM rASM or combination
Protocol: Assays for lysosomal integrity. Sub-confluent cells incubated with 2 μg/ml acridine orange for 15 min at 37° C. were washed, irradiated and analyzed in Hanks balanced salt solution complemented with 3% fetal calf serum. Cells for single cell imaging were selected from 8 pre-defined areas of each well in transmitted light-mode after which the same cells were immediately visualized and exposed to blue light from USH102 100 W mercury arc burner (Ushio electric) installed in a U-ULS100HG housing (Olympus) for 20 sec. Fluorescence microscopy was performed on Olympus IX-70 inverted microscope with a LCPlanF1×20 objective with NA=0.40. Loss of lysosomal pH gradient was quantified by counting the loss of intense red staining. A more elaborate method for assaying lysosomal integrity was developed to handle the larger lysosomal compartment of the various fibroblasts used in this study. Cells for single cell imaging were selected from 8 pre-defined areas of each well in transmitted light-mode after which the same cells were immediately and continuously exposed to 489 nm light from a 100 mW diode laser while laser scanning micrographs where captured every 330 ms on a Zeiss LSM LIVE DUO confocal system in two channels defined by bandpass filters for 495-555 nm (green) and LP650 nm (Red) light. The resulting timelapse movies where subsequently analysed by the integrated Zeiss LSM DUO software. The total and cytoplasmic (digitonin-extracted) cathepsin activities were measured in digitonin-treated samples using zFR-AFC (Enzyme System Products) probe as described in the art.

| Molecule | lysosomal stress resistance upon photo-oxidation [1] | permeabilization of lysosomes (leakage of lysosomal cathepsins into the cytosol) [2] | desipramine-induced cell death and lysosomal leakage in Hsp70-MEFs as compared to WT-MEFs [3] | viability (MTT reduction) ([3]; MEFs) | affinity for BMP compared to that of Hsp70 [4] | ASM activity [5] | lysosomal area / volume of the lysosomal compartment [6] | lysosomal stability [7] |
| --- | --- | --- | --- | --- | --- | --- | --- | --- |
| CNCCCN1c2ccccc2CCc2ccccc21 [desipramine] | reverted the lysosomal stress resistance of Hsp70-MEFs to the level of WT-MEFs | massive permeabilization of lysosomes | significantly reduced | reduced the viability of MEFs in a dose-dependent manner |  |  |  |  |
| rASM: recombinant acid sphingomyelinase (protein, UniProt P17405 47-631, looked up) Sphingomyelin …: LALSDSRVLWAPAEAHPLSPQGHPARLHRIVPRLRDVFGWGNLTCPICKGLFTAINLGLKKEPNVARVGSVAIKLCNLLKIAPPAVCQSIVHLFEDDMVEVWRRSVLSPSEACGLLLGSTCGHWDIFSSWNISLPTVPKPPPKPPSPPAPGAPVSRILFLTDLHWDHDYLEGTDPDCADPLCCRRGSGLPPASRPGAGYWGEYSKCDLPLRTLESLLSGLGPAGPFDMVYWTGDIPAHDVWHQTRQDQLRALTTVTALVRKFLGPVPVYPAVGNHESTPVNSFPPPFIEGNHSSRWLYEAMAKAWEPWLPAEALRTLRIGGFYALSPYPGLRLISLNMNFCSRENFWLLINSTDPAGQLQWLVGELQAAEDRGDKVHIIGHIPPGHCLKSWSWNYYRIVARYENTLAAQFFGHTHVDEFEVFYDEETLSRPLAVAFLAPSATTYIGLNPGYRVYQIDGNYSGSSHVVLDHETYILNLTQANIPGAIPHWQLLYRARETYGLPNTLPTAWHNLVYRMRGDMQLFQTFWFLYHKGHPPSEPCGTPCRLATLCAQLSARADSPALCRHLMPDGSLPEAQSLWPRPLFC |  |  |  |  | half | increased ASM activity | normalize the volume of the dramatically enlarged lysosomal compartment | ability to stabilize the lysosomes |
